Experimental data published in ChEMBL document CHEMBL3745672, “Novel compounds reducing IRS-1 serine phosphorylation for treatment of diabetes” (Bioorg Med Chem Lett, 2016).

Assays:
[1] = biological target: Protein kinase C alpha type (Homo sapiens) (UniProt P17252); assay: Inhibition of PKCalpha (unknown origin) at 10 uM
[2] = biological target: Serine/threonine-protein kinase B-raf (Homo sapiens) (UniProt P15056); assay: Inhibition of B-RAF (unknown origin) at 10 uM
[3] = biological target: Receptor-type tyrosine-protein kinase FLT3 (Homo sapiens) (UniProt P36888); assay: Inhibition of FLT3 (unknown origin) at 10 uM
[4] = biological target: T1, Mitogen-activated protein kinase 8 (Homo sapiens, UniProt P45983); assay: Inhibition of JNK1 (unknown origin) at 10 uM
[5] = biological target: T1, Mitogen-activated protein kinase 8; assay: Inhibition of JNK1 (unknown origin) expressed in HEK293 cells assessed as anisomycin-induced c-Jun phosphorylation at 10 uM incubated for 30 mins by Western blot analysis relative to anisomycin; type: cell-based; design: scale not given: the % may be the effect or the level left
[6] = biological target: Proto-oncogene tyrosine-protein kinase receptor Ret (Homo sapiens) (UniProt P07949); assay: Inhibition of RET (unknown origin) at 10 uM
HEK293 = assay: Cytotoxicity against HEK293 after 24 hrs by CellTiter-Glo luminescent cell viability assay; type: cell-based; conditions: Homo sapiens, HEK293, 24 h
[7] = biological target: Insulin receptor (Homo sapiens) (UniProt P06213); assay: Inhibition of INSR (unknown origin) at 10 uM
[8] = biological target: T2, Interleukin-1 receptor-associated kinase 4 (Homo sapiens) (UniProt Q9NWZ3); assay: Inhibition of IRAK4 (unknown origin) at 10 uM
T2 sequence (whole entry): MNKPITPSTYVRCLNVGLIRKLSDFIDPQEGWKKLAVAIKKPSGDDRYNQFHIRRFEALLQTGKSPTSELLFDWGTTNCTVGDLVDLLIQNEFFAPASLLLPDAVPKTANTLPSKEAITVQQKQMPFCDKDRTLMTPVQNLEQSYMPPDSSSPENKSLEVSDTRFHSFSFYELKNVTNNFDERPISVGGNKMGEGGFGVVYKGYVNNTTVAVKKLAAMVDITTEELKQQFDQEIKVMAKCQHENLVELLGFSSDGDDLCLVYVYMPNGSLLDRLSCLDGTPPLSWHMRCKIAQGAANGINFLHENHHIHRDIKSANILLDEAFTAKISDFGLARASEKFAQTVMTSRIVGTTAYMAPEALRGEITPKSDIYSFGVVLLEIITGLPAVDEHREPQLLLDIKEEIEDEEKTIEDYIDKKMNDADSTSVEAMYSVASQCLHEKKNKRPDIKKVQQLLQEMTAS

[9] = biological target: Mast/stem cell growth factor receptor Kit (Homo sapiens) (UniProt P10721); assay: Inhibition of cKIT (unknown origin) at 10 uM
[10] = biological target: Hepatocyte growth factor receptor (Homo sapiens) (UniProt P08581); assay: Inhibition of cMET (unknown origin) at 10 uM
[11] = biological target: RAC-alpha serine/threonine-protein kinase (Homo sapiens) (UniProt P31749); assay: Inhibition of AKT1 (unknown origin) at 10 uM
[12] = biological target: Mitogen-activated protein kinase 3 (Homo sapiens) (UniProt P27361); assay: Inhibition of ERK1 (unknown origin) at 10 uM
[13] = biological target: T1, Mitogen-activated protein kinase 8; assay: Inhibition of JNK1 (unknown origin) expressed in HEK293 cells assessed as anisomycin-induced IRS-1(Ser307) phosphorylation at 10 uM incubated for 30 mins by Western blot analysis relative to anisomycin; type: cell-based; design: scale not given: the % may be the effect or the level left
[14] = biological target: Serine/threonine-protein kinase PAK 4 (Homo sapiens) (UniProt O96013); assay: Inhibition of PAK4 (unknown origin) at 10 uM
[15] = biological target: T3, Inhibitor of nuclear factor kappa-B kinase subunit beta (Homo sapiens) (UniProt O14920); assay: Inhibition of IKKbeta (unknown origin) at 10 uM
T3 sequence (whole entry): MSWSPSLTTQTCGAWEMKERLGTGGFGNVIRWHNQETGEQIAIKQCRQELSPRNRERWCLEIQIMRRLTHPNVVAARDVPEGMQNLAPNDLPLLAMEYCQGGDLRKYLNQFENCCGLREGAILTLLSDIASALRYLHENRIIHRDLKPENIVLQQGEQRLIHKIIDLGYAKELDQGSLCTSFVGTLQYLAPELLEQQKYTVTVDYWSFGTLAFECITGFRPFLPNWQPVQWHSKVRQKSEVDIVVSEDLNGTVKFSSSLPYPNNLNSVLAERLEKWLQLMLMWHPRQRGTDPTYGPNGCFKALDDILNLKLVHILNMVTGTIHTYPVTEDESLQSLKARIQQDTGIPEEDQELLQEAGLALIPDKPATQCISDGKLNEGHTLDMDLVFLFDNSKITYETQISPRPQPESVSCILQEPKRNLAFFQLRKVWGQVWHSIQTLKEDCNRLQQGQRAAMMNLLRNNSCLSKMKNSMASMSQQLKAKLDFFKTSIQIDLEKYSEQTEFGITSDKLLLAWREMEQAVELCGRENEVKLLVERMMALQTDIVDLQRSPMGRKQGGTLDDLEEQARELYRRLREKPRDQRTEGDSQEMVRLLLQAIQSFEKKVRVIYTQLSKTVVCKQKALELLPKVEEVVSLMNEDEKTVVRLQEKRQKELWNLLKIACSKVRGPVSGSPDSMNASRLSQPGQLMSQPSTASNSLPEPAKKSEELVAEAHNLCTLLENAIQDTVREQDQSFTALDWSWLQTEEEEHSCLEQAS

[16] = biological target: Tyrosine-protein kinase receptor UFO (Homo sapiens) (UniProt P30530); assay: Inhibition of AXL (unknown origin) at 10 uM
[17] = biological target: Platelet-derived growth factor receptor beta (Homo sapiens) (UniProt P09619); assay: Inhibition of PDGFRbeta (unknown origin) at 10 uM
[18] = biological target: Receptor tyrosine-protein kinase erbB-2 (Homo sapiens) (UniProt P04626); assay: Inhibition of ERBB2 (unknown origin) at 10 uM
[19] = biological target: T1, Mitogen-activated protein kinase 8; assay: Inhibition of JNK1 (unknown origin)
[20] = biological target: T4, Aurora kinase A (Homo sapiens) (UniProt O14965); assay: Inhibition of AurA (unknown origin) at 10 uM
T4 sequence (whole entry): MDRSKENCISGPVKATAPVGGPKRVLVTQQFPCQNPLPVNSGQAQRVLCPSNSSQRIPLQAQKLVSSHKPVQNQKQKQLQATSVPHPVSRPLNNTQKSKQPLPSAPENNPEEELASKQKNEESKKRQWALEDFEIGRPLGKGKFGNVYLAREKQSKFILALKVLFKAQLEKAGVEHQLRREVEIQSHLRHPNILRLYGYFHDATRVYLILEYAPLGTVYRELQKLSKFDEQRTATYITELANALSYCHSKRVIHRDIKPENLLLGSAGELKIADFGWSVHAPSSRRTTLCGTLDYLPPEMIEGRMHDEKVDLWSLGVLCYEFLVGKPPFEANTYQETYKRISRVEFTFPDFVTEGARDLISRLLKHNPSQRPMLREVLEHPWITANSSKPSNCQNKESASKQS

[21] = biological target: CDK2/Cyclin A2 (Homo sapiens) (UniProt P24941+P20248); assay: Inhibition of CDK2/CyclinA (unknown origin) at 10 uM; type: protein-complex assay

T1 sequence (P45983 whole entry): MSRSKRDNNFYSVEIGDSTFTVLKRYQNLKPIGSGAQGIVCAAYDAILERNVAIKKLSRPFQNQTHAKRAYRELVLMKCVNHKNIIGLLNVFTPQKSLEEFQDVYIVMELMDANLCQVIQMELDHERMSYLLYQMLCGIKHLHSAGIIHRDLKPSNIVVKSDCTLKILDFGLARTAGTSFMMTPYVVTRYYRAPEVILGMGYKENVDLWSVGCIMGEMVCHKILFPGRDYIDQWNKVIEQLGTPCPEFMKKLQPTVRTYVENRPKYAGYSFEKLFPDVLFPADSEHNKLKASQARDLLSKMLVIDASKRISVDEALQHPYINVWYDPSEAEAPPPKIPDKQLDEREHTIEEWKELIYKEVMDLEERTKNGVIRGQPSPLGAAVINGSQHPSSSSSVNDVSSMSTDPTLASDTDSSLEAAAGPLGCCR
Tyrosine-protein kinase receptor UFO (Homo sapiens), sequence (P30530 whole entry): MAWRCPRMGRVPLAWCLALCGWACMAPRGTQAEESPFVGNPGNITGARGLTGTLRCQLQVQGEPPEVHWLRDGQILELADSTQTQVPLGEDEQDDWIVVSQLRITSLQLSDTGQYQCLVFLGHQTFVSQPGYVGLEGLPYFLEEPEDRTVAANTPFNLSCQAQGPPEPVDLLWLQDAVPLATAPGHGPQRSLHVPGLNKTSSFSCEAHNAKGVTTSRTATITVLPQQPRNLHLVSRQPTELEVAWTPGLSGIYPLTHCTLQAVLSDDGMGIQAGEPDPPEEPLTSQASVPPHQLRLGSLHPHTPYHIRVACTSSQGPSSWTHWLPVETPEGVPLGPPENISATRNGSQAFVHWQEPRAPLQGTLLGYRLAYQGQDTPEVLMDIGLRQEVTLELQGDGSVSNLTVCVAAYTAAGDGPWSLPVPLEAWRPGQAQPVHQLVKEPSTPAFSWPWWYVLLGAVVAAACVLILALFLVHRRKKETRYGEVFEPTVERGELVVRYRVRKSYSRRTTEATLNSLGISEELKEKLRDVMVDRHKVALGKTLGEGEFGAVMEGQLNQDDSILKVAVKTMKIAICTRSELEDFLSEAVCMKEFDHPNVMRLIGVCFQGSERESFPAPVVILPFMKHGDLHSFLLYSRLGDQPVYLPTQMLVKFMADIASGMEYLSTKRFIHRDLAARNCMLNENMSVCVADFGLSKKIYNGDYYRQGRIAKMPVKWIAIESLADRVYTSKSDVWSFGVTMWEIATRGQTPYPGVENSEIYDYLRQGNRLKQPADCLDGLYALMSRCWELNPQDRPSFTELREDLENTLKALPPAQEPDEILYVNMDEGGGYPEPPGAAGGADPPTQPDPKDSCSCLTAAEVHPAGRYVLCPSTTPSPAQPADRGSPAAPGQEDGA
Insulin receptor (Homo sapiens), sequence (P06213 28-758 limits assumed): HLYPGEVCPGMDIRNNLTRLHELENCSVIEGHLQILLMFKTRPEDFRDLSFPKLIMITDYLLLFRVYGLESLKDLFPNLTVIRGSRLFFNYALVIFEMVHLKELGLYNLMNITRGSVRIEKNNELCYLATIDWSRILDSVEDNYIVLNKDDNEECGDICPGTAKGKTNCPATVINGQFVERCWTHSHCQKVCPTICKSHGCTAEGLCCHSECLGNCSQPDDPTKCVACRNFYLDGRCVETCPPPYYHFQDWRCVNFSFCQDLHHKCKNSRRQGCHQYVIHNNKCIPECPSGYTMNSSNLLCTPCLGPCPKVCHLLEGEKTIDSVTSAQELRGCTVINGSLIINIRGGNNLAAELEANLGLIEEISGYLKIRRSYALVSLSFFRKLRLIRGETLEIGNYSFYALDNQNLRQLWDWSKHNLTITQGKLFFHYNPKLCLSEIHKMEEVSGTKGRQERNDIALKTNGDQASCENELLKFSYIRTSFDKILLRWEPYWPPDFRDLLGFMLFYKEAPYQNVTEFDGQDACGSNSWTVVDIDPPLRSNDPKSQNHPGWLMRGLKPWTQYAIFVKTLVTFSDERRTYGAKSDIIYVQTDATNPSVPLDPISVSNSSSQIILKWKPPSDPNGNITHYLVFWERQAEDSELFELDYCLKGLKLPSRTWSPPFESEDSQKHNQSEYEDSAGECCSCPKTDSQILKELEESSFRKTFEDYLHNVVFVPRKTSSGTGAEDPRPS
Insulin receptor (Homo sapiens), sequence (P06213 763-1382 limits assumed): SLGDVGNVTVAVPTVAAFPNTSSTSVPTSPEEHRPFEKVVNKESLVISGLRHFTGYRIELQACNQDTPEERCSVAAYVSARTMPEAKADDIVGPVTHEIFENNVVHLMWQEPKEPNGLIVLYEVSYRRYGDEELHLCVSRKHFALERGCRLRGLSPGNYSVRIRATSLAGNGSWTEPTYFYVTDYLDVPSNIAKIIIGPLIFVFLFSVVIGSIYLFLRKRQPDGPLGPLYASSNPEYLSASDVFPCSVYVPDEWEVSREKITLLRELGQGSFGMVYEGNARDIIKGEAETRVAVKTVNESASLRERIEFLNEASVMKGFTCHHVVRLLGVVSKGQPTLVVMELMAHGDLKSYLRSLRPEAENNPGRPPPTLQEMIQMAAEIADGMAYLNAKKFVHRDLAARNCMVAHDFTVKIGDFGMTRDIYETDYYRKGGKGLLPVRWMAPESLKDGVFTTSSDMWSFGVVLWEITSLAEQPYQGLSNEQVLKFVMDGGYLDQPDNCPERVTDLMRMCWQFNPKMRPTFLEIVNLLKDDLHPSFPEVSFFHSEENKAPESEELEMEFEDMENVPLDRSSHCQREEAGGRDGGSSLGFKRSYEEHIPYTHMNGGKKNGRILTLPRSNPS
Proto-oncogene tyrosine-protein kinase receptor Ret (Homo sapiens), sequence (P07949 whole entry): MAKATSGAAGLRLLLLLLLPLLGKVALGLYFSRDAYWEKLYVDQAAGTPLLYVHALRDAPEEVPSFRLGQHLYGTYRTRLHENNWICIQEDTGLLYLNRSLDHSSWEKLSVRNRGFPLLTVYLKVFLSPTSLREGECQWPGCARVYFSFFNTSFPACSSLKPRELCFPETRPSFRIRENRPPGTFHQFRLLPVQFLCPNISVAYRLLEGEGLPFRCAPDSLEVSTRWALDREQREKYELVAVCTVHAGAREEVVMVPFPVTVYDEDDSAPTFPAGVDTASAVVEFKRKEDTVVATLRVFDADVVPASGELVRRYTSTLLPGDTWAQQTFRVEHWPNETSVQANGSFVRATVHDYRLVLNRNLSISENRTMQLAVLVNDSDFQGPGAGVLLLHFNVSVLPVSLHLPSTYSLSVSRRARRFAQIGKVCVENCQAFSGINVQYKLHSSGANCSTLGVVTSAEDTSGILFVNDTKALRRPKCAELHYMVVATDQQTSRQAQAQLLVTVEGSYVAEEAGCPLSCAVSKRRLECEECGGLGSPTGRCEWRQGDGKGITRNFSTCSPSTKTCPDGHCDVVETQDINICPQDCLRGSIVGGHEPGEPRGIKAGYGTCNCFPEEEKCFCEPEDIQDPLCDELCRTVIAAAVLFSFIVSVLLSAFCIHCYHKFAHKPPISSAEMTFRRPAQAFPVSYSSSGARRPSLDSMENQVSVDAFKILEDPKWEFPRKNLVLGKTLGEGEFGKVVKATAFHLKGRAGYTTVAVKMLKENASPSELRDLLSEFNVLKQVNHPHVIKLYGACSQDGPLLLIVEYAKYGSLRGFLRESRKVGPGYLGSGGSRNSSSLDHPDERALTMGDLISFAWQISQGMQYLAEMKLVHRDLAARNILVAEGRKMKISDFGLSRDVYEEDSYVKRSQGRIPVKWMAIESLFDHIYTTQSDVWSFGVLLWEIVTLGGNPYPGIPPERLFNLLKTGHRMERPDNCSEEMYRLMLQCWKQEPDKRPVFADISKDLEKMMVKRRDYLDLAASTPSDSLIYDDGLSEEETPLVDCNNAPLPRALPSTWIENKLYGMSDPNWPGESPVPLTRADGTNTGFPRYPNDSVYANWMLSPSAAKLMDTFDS
RAC-alpha serine/threonine-protein kinase (Homo sapiens), sequence (P31749 whole entry): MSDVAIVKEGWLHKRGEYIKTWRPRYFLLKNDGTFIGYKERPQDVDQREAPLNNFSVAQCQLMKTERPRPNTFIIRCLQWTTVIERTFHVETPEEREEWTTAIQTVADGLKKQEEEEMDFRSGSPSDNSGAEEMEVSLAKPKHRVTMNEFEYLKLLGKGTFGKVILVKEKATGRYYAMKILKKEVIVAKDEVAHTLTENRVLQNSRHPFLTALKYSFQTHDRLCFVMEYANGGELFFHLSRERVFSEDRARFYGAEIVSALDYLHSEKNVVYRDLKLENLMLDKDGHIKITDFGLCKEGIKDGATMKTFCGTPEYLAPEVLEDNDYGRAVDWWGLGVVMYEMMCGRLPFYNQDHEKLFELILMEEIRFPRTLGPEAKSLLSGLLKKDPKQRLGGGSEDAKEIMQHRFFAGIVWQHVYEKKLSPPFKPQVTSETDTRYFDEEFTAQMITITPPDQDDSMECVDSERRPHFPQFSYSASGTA

- inhibition [1]: 12%
- inhibition [2]: 53%
- inhibition [3]: 6%
- inhibition [4]: 64%
- Activity [5]: 76.9%
- inhibition [6]: 98%
- inhibition [7]: 5%
- inhibition [8]: 16%
- inhibition [9]: 96%
- inhibition [10]: 0%
- inhibition [11]: 0%
- inhibition [12]: 5%
- Activity [13]: 2.08%
- inhibition [14]: 0%
- inhibition [15]: 5%
- inhibition [16]: 9%
- inhibition [17]: 100%
- inhibition [18]: 74%
- IC50 [19]: 3.34 µM
- inhibition [20]: 54%
- inhibition [21]: 0%
Compound: CN1CCN(c2ccc(Nc3ncc4cc(Oc5ccc(F)cc5F)c(=O)n(C)c4n3)cc2)CC1
- IC50 (HEK293): > 30 µM
